Columns and labels:
H460 (p53-WT) = assay: Three day cell growth inhibition assay, H460; format: cell-based, human; details: H460 (p53 wildtype), FIG. 2
H1299 (p53-null) = assay: Three day cell growth inhibition assay, H1299; format: cell-based, human; details: FIG. 2
[1] = system: HEK293 (non-cancer, p53-WT) cells; assay: Intracellular [Zn2+]free imaging with FluoZin-3-AM, HEK293; format: cell-based; details: for increase of intracellular [Zn2+]free (FZ3 fluorescence): HEK293, complete media
Experimental: To minimize the potential for Zn^2+ contamination and contributions from poorly defined elements in complete media (e.g. FBS), cells were treated and imaged in Ca^2+ and Mg^2+-free Earle's Balanced Salt Solution supplemented with 10 mM HEPES pH 7.4 (EBSS/H (−)Ca/Mg). Excess ZnCl2 with the Zn^2+ ionophore pyrithione (PYR) was used as a positive control. Excess membrane-permeable Zn^2+ chelator N,N,N′,N′-tetrakis(2-pyridylmethyl)ethane-1,2-diamine (TPEN) was used as a negative control.
To normalize for differential dye loading, cells were then sequentially treated with excess PYR/ZnCl2, imaged, treated with TPEN, and imaged again. PYR/ZnCl2 and TPEN served to saturate and apoize the intracellular FZ3, respectively.
TOV112D or HEK293 cells (40,000 cells/well) were plated on either 8-well BD Falcon chambered culture slides (Corning Life Sciences) or 8-chambered #1.5 Nunc Lab-Tek II chambered coverglasses (Thermo Scientific) treated with poly-L-lysine. After 48 h, cells were washed 2×5 m in serum-free media and incubated with 1 μM FZ3-AM for 40 m at 37° C. Cells were then washed 2×5 m in either EBSS/H (−)Ca/Mg or phenol-red free DMEM+10% FBS containing the indicated treatments for 20 m before imaging. For nuclear colocalization, 1 μg/mL Hoechst 33342 was also included. Cells were imaged using a Zeiss LSM510 META NLO confocal microscope equipped with 37° C. environmental control chamber. FZ3 and Hoechst 33342 were excited at 488 nm (argon laser) and 790 nm (Chameleon Ti:sapphire laser), respectively. To determine the kinetics of fluorescence change, each background-subtracted image in the time-lapse series was integrated in ImageJ and normalized to the integrated fluorescence of the first frame after treatment. For quantification of intracellular [Zn^2+]free, each cell was analyzed in the treated, 50 μM PYR/ZnCl2 (1:1), and 100 μM TPEN images by taking the mean fluorescence of an ROI inside the cell subtracted by an ROI immediately outside the cell measured in ImageJ. The [Zn^2+]free for each cell was then calculated by Eqn 2:
[formula] […] To minimize the effects of outliers the lowest and highest 5% of cells in each series were rejected, and the remaining values averaged to give the value from that experiment. The number of cells analyzed in each trial ranged from 54-163. For nuclear colocalization, treated, PYR/ZnCl2, and TPEN treated images costained with Hoechst 33342 were aligned and each pixel subjected to Eqn. 2 in MATLAB (MathWorks).

[2] = Liposome import assay (RhodZin-3 in DOPC liposomes); details: for transport of Zn2+ into liposomes (rate of RZ-3 fluorescence increase): external [Zn2+]free 10 μM
Experimental: Zn^2+ alone was unable to permeate the liposomal membrane as indicated by the lack of RZ-3 fluorescence increase.
It can function as an ionophore in conditions of the liposome experiments where external [Zn^2+]free was 10 μM. However, in complete media containing 10% fetal bovine serum (FBS), Zn^2+-binding proteins from the serum (e.g. albumin) necessarily compete for Zn^2+ with any putative MC, making the effective [Zn^2+]free much lower than [Zn^2+]total.
DOPC-liposomes were prepared by film rehydration and extrusion followed by gel filtration and diluted to an OD600=0.06 in buffer. The size distribution of the liposomes was determined by dynamic light scattering (DLS) using a Malvern Zetasizer Nano ZS. Fluorescence measurements were taken on a Horiba Fluoromax-4 spectrofluorimeter in a 5×5 mm quartz cuvette with λex/λem=550/572 nm for RZ-3 and 490/515 nm for calcein. Initial Zn^2+ import/export was quantified by fitting the first 10-30 s of data after each treatment to a line and converted to units of flux using the following Eqn 1:
[formula] where Ji is the initial flux, ΔF/Δt is the slope of the fit line, Fmax is RZ-3 fluorescence in the presence of saturating Zn^2+ and 1% TritonX-100, Fmin is RZ-3 fluorescence in the presence of excess EDTA and 1% TritonX-100, [RZ3] is the concentration of encapsulated RZ-3, and SA/Vol is the surface area to volume ratio calculated assuming hollow spheres of the mean diameter determined by DLS. Intracellular [Zn^2+]free Imaging

[3] = Mouse survival, daily IP administration (Example 13); format: in vivo; details: mice, ZN1 5.6 mg/kg vs ZMC1 5 mg/kg IP daily, FIG. 5

Row | Compound | cell growth inhibition (cell killing) (H460 (p53-WT)) | cell growth inhibition (cell killing) (H1299 (p53-null)) | t1/2 of intracellular [Zn2+]free increase ([1]; HEK293, ZMC1 and ZnCl2, EBSS/H (−)Ca/Mg, mean±SD, n=4) | increase of intracellular [Zn2+]free (FZ3 fluorescence) [1] | Zn2+ export from liposomes (RZ-3 fluorescence) ([2]; excess EDTA outside the liposomes) | transport of Zn2+ into liposomes (rate of RZ-3 fluorescence increase) [2] | potency in vivo (survival) relative to monomer ZMC1 [3]
1 | C/C(=N\NC(=S)N1CCC1)c1ccccn1 [Compound 6, (E)-N′-(1-(pyridin-2-yl)ethylidene)azetidine-1-carbothiohydrazide] | undisturbed | undisturbed | 2.07 ± 0.333 min | increased intracellular [Zn^2+]free | time dependent decrease in RZ-3 fluorescence | dose-dependent increase | 
2 | C/C(=N\NC(=O)N1CCC1)c1ccccn1 [Compound 10, (E)-N′-(1-(pyridin-2-yl)ethylidene)azetidine-1-carbohydrazide] |  |  |  | did not |  | shuttled Zn^2+ into the liposomes | 
3 | O=C(O)CN(CC(=O)O)CC(=O)O [NTA, reference compound] |  |  |  | did not |  | did not | 
4 | [Zn(ZMC1)2] [Compound 12] |  |  |  |  |  |  | greater potency
